Laboratory results from ChEMBL document CHEMBL1135050, “Design and synthesis of 4,5-disubstituted-thiophene-2-amidines as potent urokinase inhibitors” (Bioorg Med Chem Lett, 2002).
In brackets after ≈: the same amount, converted by molar mass.

What was measured:
[1] = Compound was evaluated for its solubility in water; assay type: ADME
[2] = target: Urokinase-type plasminogen activator (Homo sapiens, UniProt P00749); assay: Inhibition of Human kidney cell urokinase; assay type: cell-based

| solubility [1] [µM] | Ki [2] [µM] | SMILES |
| --- | --- | --- |
| 9000 (≈ 2690 µg/mL) |  | Cc1sc(C(=N)N)cc1-c1nc(-c2ccccc2)cs1 |
| 300 (≈ 99.4 µg/mL) |  | CSc1sc(C(=N)N)cc1-c1nc(-c2ccccc2)cs1 |
|  | 0.102 | CSc1sc(C(=N)N)cc1-c1nc(-c2ccc(Cl)cc2)cs1 |
|  | 0.058 | COc1ccc(-c2csc(-c3cc(C(=N)N)sc3SC)n2)cc1OC |
|  | 2.5 | CS(=O)(=O)c1sc(C(=N)N)cc1-c1nc(-c2ccc(Cl)cc2)cs1 |
|  | 0.531 | COc1sc(C(=N)N)cc1-c1nc(-c2ccccc2)cs1 |
|  | 2.5 | N=C(N)c1cc(-c2nc(-c3ccc(Cl)cc3)cs2)c(SCc2ccccc2)s1 |
| 2700 (≈ 846 µg/mL) | 0.138 | CCc1sc(C(=N)N)cc1-c1nc(-c2ccccc2)cs1 |
